# In patent US12649733B2, “3,6-diamino-pyridazin-3-yl derivatives, pharmaceutical compositions containing them and their uses as pro-apoptotic agents” (LES LABORATOIRES SERVIER, priority 2019, dated 2026):
# What was measured:
# [1] = biological target: BCLXL (Homo sapiens, UniProt Q07817, V10N/V9A); assay: Fluorescence polarisation assay (PUMA-based probe displacement); assay type: binding; further: 20 nM protein, 10 nM fluorescent probe
# Protocol: Fluorescence polarization measures the rotation of a fluorescing species in solution, the larger the molecule the more polarized the fluorescence emission.
# [[…]] (GST UniProtKB® primary accession number P08515 and BCLXL UniProtKB® primary accession number Q07817-1),
# resulting in an increase in anisotropy. If a compound is added which competitively binds to the same site as the probe, thereby releasing it, anisotropy decreases due to the increased amount of free probe.
# An 11-point serial dilution of each compound was prepared in DMSO, the final buffer conditions were 10 mM 4-(2-hydroxyethyl)-1-piperazineethanesulfonic acid [HEPES], 150 mM NaCl, 0.05% Tween 20, pH 7.4 and 5% DMSO. The final protein concentration in the assay was 20 nM with the fluorescent probe present at 10 nM. The experiments were incubated for 2 hours at 23° C. before fluorescence polarization was measured on a Biotek SynergyNeo plate reader (Excitation 485 nm, emission 525 nm, parallel and perpendicular reads). […] The KI values were determined from the IC50 values according to Cer et al, Nucleic Acids Res, 2009, Jul. 1: 37(WebServer issue): W441-W445.
# [2] = test system: H146 cells; assay: H146 cell viability, MTT assay; assay type: cell-based; details: Homo sapiens, NCI-H146, 48 h, 48 h exposure
# Protocol: (§1) MTT colorimetric assay is based on the mitochondrial reduction of tetrazolium salt by living cells. The viable cell number is proportional to the production of formazan salts, which can be read spectrophotometrically at 540 nm.
# (§2) MOLT-4 and H146 cells were purchased from ATCC and cultivated in RPMI 1640 supplemented with 10% heat inactivated fetal bovine serum, penicillin (100 IU/ml), streptomycin (100 μg/ml) and L-glutamine (2 mM). Cells were cultured at 37° C. in a humidified atmosphere containing 5% CO2. Cells were seeded in 96 microwell plates (150 μL per well) and exposed to the compounds for 48 h (3.16 fold serially diluted; 9 concentrations each, triplicates). At the end of incubation time, 15 μL of MTT solution (5 mg/ml) were added per well and the cells were incubated for another 4 h. Then, 100 μL of 10% Sodium Dodecyl Sulfate (SDS)/HCl 10 mM were added per well and the plate was incubated overnight, before measurement of optical density at 540 nm. IC50s were calculated using standard four-parametric curve fitting.
# [3] = test system: MOLT-4 cells; assay: MOLT-4 cell viability, MTT assay; assay type: cell-based; details: Homo sapiens, MOLT-4, 48 h, 48 h exposure
# Protocol: as §1, §2
# BCLXL, sequence (Q07817 with tags, fused parts or gaps V9A/V10N): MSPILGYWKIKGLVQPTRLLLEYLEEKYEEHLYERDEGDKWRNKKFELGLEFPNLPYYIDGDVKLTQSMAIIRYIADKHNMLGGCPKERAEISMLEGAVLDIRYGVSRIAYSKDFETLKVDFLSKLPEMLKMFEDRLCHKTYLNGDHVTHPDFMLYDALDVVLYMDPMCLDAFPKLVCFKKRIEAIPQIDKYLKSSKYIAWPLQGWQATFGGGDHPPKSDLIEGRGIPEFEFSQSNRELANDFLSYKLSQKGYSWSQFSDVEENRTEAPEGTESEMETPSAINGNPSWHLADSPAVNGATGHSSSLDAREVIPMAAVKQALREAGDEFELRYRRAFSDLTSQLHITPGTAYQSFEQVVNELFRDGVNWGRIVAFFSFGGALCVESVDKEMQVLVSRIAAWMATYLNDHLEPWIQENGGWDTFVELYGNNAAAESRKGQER
SMILES,Ki [1],IC50 [2],IC50 [3]
"Cc1c(-c2sc(Nc3ccc(Nc4nc5ccccc5s4)nn3)nc2C(=O)O)cnn1CC12CC3CC(CC(C3)C1)C2 [Example 32, 5-{1-[(Adamantan-1-yl)methyl]-5-methyl-1H-pyrazol-4-yl}-2-({6-[(1,3-benzothiazol-2-yl)amino]pyridazin-3-yl}amino)-1,3-thiazole-4-carboxylic acid]",0.26 µM,≥ 7.42 µM,13.3 µM
"Cc1c(Nc2nc(C(=O)O)c(-c3cnn(CC45CC6CC(CC(C6)C4)C5)c3C)s2)nnc(Nc2nc3ccccc3s2)c1C [Example 33, 5-{1-[(Adamantan-1-yl)methyl]-5-methyl-1H-pyrazol-4-yl}-2-({6-[(1,3-benzothiazol-2-yl)amino]-4,5-dimethylpyridazin-3-yl}amino)-1,3-thiazole-4-carboxylic acid]",0.064 µM,4.37 µM,6.25 µM
"CC(C)c1cc(N(C)c2nc(C(=O)O)cs2)nnc1Nc1nc2ccccc2s1 [Example 34, 2-({6-[(1,3-Benzothiazol-2-yl)amino]-5-(propan-2-yl)pyridazin-3-yl}(methyl)amino)-1,3-thiazole-4-carboxylic acid]",0.0089 µM,5.32 µM,3.89 µM
"COCCCC1(Cn2ncc(-c3sc(Nc4nnc(Nc5nc6ccccc6s5)c(C)c4C)nc3C(=O)O)c2C)CCCCCCC1 [Example 35, 2-({6-[(1,3-Benzothiazol-2-yl)amino]-4,5-dimethylpyridazin-3-yl}amino)-5-(1-{[1-(3-methoxypropyl)cyclooctyl]methyl}-5-methyl-1H-pyrazol-4-yl)-1,3-thiazole-4-carboxylic acid]",0.059 µM,2.33 µM,3.7 µM
"COCCCC1(Cn2ncc(-c3sc(Nc4nnc(Nc5nc6ccccc6s5)c(C)c4C)nc3C(=O)O)c2C)CCCCC1 [Example 36, 2-({6-[(1,3-benzothiazol-2-yl)amino]-4,5-dimethylpyridazin-3-yl}amino)-5-(1-{[1-(3-methoxypropyl)cyclohexyl]methyl}-5-methyl-1H-pyrazol-4-yl)-1,3-thiazole-4-carboxylic acid]",0.028 µM,1.99 µM,3.47 µM
"CCN(c1cc(C)c(Nc2nc3ccccc3s2)nn1)c1nc(C(=O)O)cs1 [Example 37, 2-({6-[(1,3-Benzothiazol-2-yl)amino]-5-methylpyridazin-3-yl}(ethyl)amino)-1,3-thiazole-4-carboxylic acid]",0.015 µM,11 µM,7.39 µM
"CN(c1ccc(Nc2nc3ccccc3s2)nn1)c1cccc(C(=O)O)n1 [Example 38, 6-({6-[(1,3-Benzothiazol-2-yl)amino]pyridazin-3-yl}(methyl)amino)pyridine-2-carboxylic acid]",250 µM,> 15 µM,> 15 µM
"COCCN(c1cc(C)c(Nc2nc3ccccc3s2)nn1)c1nc(C(=O)O)cs1 [Example 39, 2-({6-[(1,3-Benzothiazol-2-yl)amino]-5-methylpyridazin-3-yl}(2-methoxyethyl)amino)-1,3-thiazole-4-carboxylic acid]",0.054 µM,> 15 µM,> 15 µM
"Cc1cc(N(C)c2nc(C(=O)O)c(-c3cnn(CC45CC6CC(CC(C6)C4)C5)c3C)s2)nnc1Nc1nc2ccccc2s1 [Example 40, 5-{1-[(Adamantan-1-yl)methyl]-5-methyl-1H-pyrazol-4-yl}-2-({6-[(1,3-benzothiazol-2-yl)amino]-5-methylpyridazin-3-yl}(methyl)amino)-1,3-thiazole-4-carboxylic acid]",0.02 µM,3.8 µM,1.49 µM
"Cc1cc(N(CCN2CCOCC2)c2nc(C(=O)O)cs2)nnc1Nc1nc2ccccc2s1 [Example 41, 2-({6-[(1,3-Benzothiazol-2-yl)amino]-5-methylpyridazin-3-yl}[2-(morpholin-4-yl)ethyl]amino)-1,3-thiazole-4-carboxylic acid]",0.037 µM,≥ 9.76 µM,> 13 µM
"COCCCC1(Cn2ncc(-c3sc(N(C)c4cc(C)c(Nc5nc6ccccc6s5)nn4)nc3C(=O)O)c2C)CCCCC1 [Example 42, 2-({6-[(1,3-Benzothiazol-2-yl)amino]-5-methylpyridazin-3-yl}(methyl)amino)-5-(1-{[1-(3-methoxypropyl)cyclohexyl]methyl}-5-methyl-1H-pyrazol-4-yl)-1,3-thiazole-4-carboxylic acid]",0.0047 µM,2.04 µM,1.02 µM
"Cc1cc(N(CCCN2CCOCC2)c2nc(C(=O)O)cs2)nnc1Nc1nc2ccccc2s1 [Example 44, 2-({6-[(1,3-Benzothiazol-2-yl)amino]-5-methylpyridazin-3-yl}[3-(morpholin-4-yl)propyl]amino)-1,3-thiazole-4-carboxylic acid]",0.069 µM,> 15 µM,> 15 µM
"CCCN(c1cc(C)c(Nc2nc3ccccc3s2)nn1)c1nc(C(=O)O)cs1 [Example 45, 2-({6-[(1,3-Benzothiazol-2-yl)amino]-5-methylpyridazin-3-yl}(propyl)amino)-1,3-thiazole-4-carboxylic acid]",0.014 µM,≥ 11.8 µM,11.7 µM
"CCN(CC)CCCN(c1cc(C)c(Nc2nc3ccccc3s2)nn1)c1nc(C(=O)O)cs1 [Example 46, 2-({6-[(1,3-Benzothiazol-2-yl)amino]-5-methylpyridazin-3-yl}[3-(diethylamino)propyl]amino)-1,3-thiazole-4-carboxylic acid]",0.19 µM,> 15 µM,> 15 µM
"COCCCN(c1cc(C)c(Nc2nc3ccccc3s2)nn1)c1nc(C(=O)O)cs1 [Example 47, 2-({6-[(1,3-Benzothiazol-2-yl)amino]-5-methylpyridazin-3-yl}(3-methoxypropyl)amino)-1,3-thiazole-4-carboxylic acid]",0.023 µM,≥ 9.62 µM,> 15 µM
"Cc1cc(N(CCCO)c2nc(C(=O)O)cs2)nnc1Nc1nc2ccccc2s1 [Example 49, 2-({6-[(1,3-Benzothiazol-2-yl)amino]-5-methylpyridazin-3-yl}(3-hydroxypropyl)amino)-1,3-thiazole-4-carboxylic acid]",0.0081 µM,> 15 µM,> 15 µM
"COCCCN(c1cc(C)c(Nc2nc3ccccc3s2)nn1)c1nc(C(=O)O)c(-c2cnn(CC34CC5CC(CC(C5)C3)C4)c2C)s1 [Example 52, 5-{1-[(Adamantan-1-yl)methyl]-5-methyl-1H-pyrazol-4-yl}-2-({6-[(1,3-benzothiazol-2-yl)amino]-5-methylpyridazin-3-yl}(3-methoxypropyl)amino)-1,3-thiazole-4-carboxylic acid]",0.09 µM,13 µM,8.36 µM
"Cc1c(-c2sc(N(C)c3cc(C4CC4)c(Nc4nc5ccccc5s4)nn3)nc2C(=O)O)cnn1CC12CC3CC(CC(C3)C1)C2 [Example 53, 5-{1-[(Adamantan-1-yl)methyl]-5-methyl-1H-pyrazol-4-yl}-2-({6-[(1,3-benzothiazol-2-yl)amino]-5-cyclopropylpyridazin-3-yl}(methyl)amino)-1,3-thiazole-4-carboxylic acid]",0.015 µM,1.65 µM,0.701 µM
"Cc1cc(N(C)c2ccc(C(=O)O)s2)nnc1Nc1nc2ccccc2s1 [Example 56, 5-({6-[(1,3-Benzothiazol-2-yl)amino]-5-methylpyridazin-3-yl}(methyl)amino)thiophene-2-carboxylic acid]",> 10 µM,> 15 µM,> 15 µM
"Cc1c(Nc2nc(C(=O)O)cs2)nnc(Nc2nc3cc(F)c(F)cc3s2)c1C [Example 57, 2-[[6-[(5,6-Difluoro-1,3-benzothiazol-2-yl)amino]-4,5-dimethyl-pyridazin-3-yl]amino]thiazole-4-carboxylic acid]",0.35 µM,13.4 µM,> 15 µM
"Cc1c(Nc2nc(C(=O)O)cs2)nnc(Nc2nc3cc(F)ccc3s2)c1C [Example 58, 2-[[6-[(5-Fluoro-1,3-benzothiazol-2-yl)amino]-4,5-dimethyl-pyridazin-3-yl]amino]thiazole-4-carboxylic acid]",0.049 µM,> 15 µM,> 15 µM
"Cc1cc(N(C)c2nc(C(=O)O)c(CCCOC3CCCCC3)s2)nnc1Nc1nc2ccccc2s1 [Example 61, 2-({6-[(1,3-Benzothiazol-2-yl)amino]-5-methylpyridazin-3-yl}(methyl)amino)-5-[3-(cyclohexyloxy)propyl]-1,3-thiazole-4-carboxylic acid]",< 0.001 µM,0.593 µM,0.192 µM
